Test results from patent publication US12459951B2, “Compounds that interact with RAS superfamily proteins for treatment of cancers, inflammatory diseases, rasopathies, and fibrotic disease” (SHY Therapeutics, LLC, priority 2022, dated 2025).
Structures can show the parent of a compound that is named as a salt.

What was measured:
Assay in all cases: Ras GTP Binding Domain Inhibition Assay (Ras Superfamily Assay)
Rho-A = molecular target: T1, Rho-A (Homo sapiens, UniProt P61586); settings: read-out: Rho-A: % inh..
T1 construct: made in house
In short: (§1)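 Binding of 100 nM fluorescent GTP (Cy3 or Cy5, 45 min, room temperature) was read after washes from plate-captured His-tagged protein. Beforehand, compounds at 20 μM or in dilution series for IC50 sat 3 h on the protein in Tris buffer pH 7.4 or 7.0 with 1% DMSO, Sos GEF optionally added for the last hour.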

KRas G12C mutant = settings: 20 μM compound; for KRas G12C mutant + SOS: % inh.: with SOS; for KRas G12C mutant: % inh.: without SOS
In short: as §1

KRas Q61H mutant = settings: 20 μM compound; for KRas Q61H mutant + SOS: % inh.: with SOS; for KRas Q61H mutant: % inh.: without SOS
In short: as §1

T1 sequence (P61586 whole entry): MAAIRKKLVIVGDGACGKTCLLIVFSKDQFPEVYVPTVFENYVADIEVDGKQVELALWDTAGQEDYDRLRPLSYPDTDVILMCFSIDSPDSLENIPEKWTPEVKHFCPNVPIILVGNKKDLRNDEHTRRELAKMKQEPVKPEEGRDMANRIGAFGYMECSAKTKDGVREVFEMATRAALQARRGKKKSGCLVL

`CO[C@H]1CC[C@@H](Nc2nc(-c3nccn3C)nn3cc(-c4ccn(C(C)C)n4)c(-c4ccccc4)c23)C1` (racemic) [Compound 18, rac 6-(1-Isopropyl-1H-pyrazol-3-yl)-N-((1R,3S)-3-methoxycyclopentyl)-2-(1-methyl-1H-imidazol-2-yl)-5-phenylpyrrolo[2,1-f][1,2,4]triazin-4-amine hydrochloride] was tested, and the inhibition at 20 µM (Rho-A) was 1 to 25%, the “KRas G12C mutant + SOS: % inh.” value (KRas G12C mutant) was 0 (0 = 0% inhibition) and the “KRas G12C mutant: % inh.” value (KRas G12C mutant) was 0 (0 = 0% inhibition). For the same compound, the “KRas Q61H mutant + SOS: % inh.” value (KRas Q61H mutant) was “A (A = 1-25% inhibition)” and the “KRas Q61H mutant: % inh.” value (KRas Q61H mutant) was 0 (0 = 0% inhibition).

For `Cc1ccn2nc(-c3nccn3C)nc(N)c12.O=C(O)C(F)(F)F` [Compound 37, 5-Methyl-2-(1-methyl-1H-imidazol-2-yl)pyrrolo[2,1-f][1,2,4]triazin-4-amine trifluoroacetic acid salt], the inhibition at 20 µM (Rho-A) was 0%, the “KRas G12C mutant + SOS: % inh.” value (KRas G12C mutant) was “C (C = 50-75% inhibition)” and the “KRas G12C mutant: % inh.” value (KRas G12C mutant) was “C (C = 50-75% inhibition)”. For the same compound, the “KRas Q61H mutant + SOS: % inh.” value (KRas Q61H mutant) was 0 (0 = 0% inhibition) and the “KRas Q61H mutant: % inh.” value (KRas Q61H mutant) was 0 (0 = 0% inhibition).

With `COc1cccc(-c2cn3nc(-c4nccn4C)nc(N[C@@H]4CC[C@@H](OC)C4)c3c2-c2ccccc2)c1Cl.Cl` (racemic) [Compound 34, rac 6-(2-Chloro-3-methoxyphenyl)-N-((1R,3R)-3-methoxycyclopentyl)-2-(1-methyl-1H-imidazol-2-yl)-5-phenylpyrrolo[2,1-f][1,2,4]triazin-4-amine hydrochloride] the inhibition at 20 µM (Rho-A) was 1 to 25%, the “KRas G12C mutant + SOS: % inh.” value (KRas G12C mutant) was “A (A = 1-25% inhibition)” and the “KRas G12C mutant: % inh.” value (KRas G12C mutant) was 0 (0 = 0% inhibition). The “KRas Q61H mutant + SOS: % inh.” value (KRas Q61H mutant) was 0 (0 = 0% inhibition) and the “KRas Q61H mutant: % inh.” value (KRas Q61H mutant) was 0 (0 = 0% inhibition).

With `COC[C@@H]1CC[C@@H]1CNc1nc(-c2nccn2C)nn2cc(-c3ccn(C(C)C)n3)c(-c3ccccc3)c12` (racemic) [Compound 20, rac 6-(1-Isopropyl-1H-pyrazol-3-yl)-N-(((1S,2R)-2-(methoxymethyl)cyclobutyl)methyl)-2-(1-methyl-1H-imidazol-2-yl)-5-phenylpyrrolo[2,1-f][1,2,4]triazin-4-amine] the inhibition at 20 µM (Rho-A) was 1 to 25%, the “KRas G12C mutant + SOS: % inh.” value (KRas G12C mutant) was 0 (0 = 0% inhibition) and the “KRas G12C mutant: % inh.” value (KRas G12C mutant) was “A (A = 1-25% inhibition)”. For the same compound, the “KRas Q61H mutant + SOS: % inh.” value (KRas Q61H mutant) was 0 (0 = 0% inhibition) and the “KRas Q61H mutant: % inh.” value (KRas Q61H mutant) was 0 (0 = 0% inhibition).

`COC1CCCN(c2nc(-c3nccn3C)nn3cc(-c4ccn(C(C)C)n4)c(-c4ccccc4)c23)C1` (racemic) [Compound 21, rac 6-(1-Isopropyl-1H-pyrazol-3-yl)-4-(3-methoxypiperidin-1-yl)-2-(1-methyl-1H-imidazol-2-yl)-5-phenylpyrrolo[2,1-f][1,2,4]triazine] was tested, and the inhibition at 20 µM (Rho-A) was 1 to 25%, the “KRas G12C mutant + SOS: % inh.” value (KRas G12C mutant) was 0 (0 = 0% inhibition) and the “KRas G12C mutant: % inh.” value (KRas G12C mutant) was 0 (0 = 0% inhibition). For the same compound, the “KRas Q61H mutant + SOS: % inh.” value (KRas Q61H mutant) was “A (A = 1-25% inhibition)” and the “KRas Q61H mutant: % inh.” value (KRas Q61H mutant) was 0 (0 = 0% inhibition).

For `COc1cccc(Nc2nc(-c3nccn3C)nn3cc(-c4ccn(C(C)C)n4)c(C)c23)n1` [Compound 7, 6-(1-Isopropyl-1H-pyrazol-3-yl)-N-(6-methoxypyridin-2-yl)-5-methyl-2-(1-methyl-1H-imidazol-2-yl)pyrrolo[2,1-f][1,2,4]triazin-4-amine], the inhibition at 20 µM (Rho-A) was 0%, the “KRas G12C mutant + SOS: % inh.” value (KRas G12C mutant) was “A (A = 1-25% inhibition)” and the “KRas G12C mutant: % inh.” value (KRas G12C mutant) was 0 (0 = 0% inhibition). For the same compound, the “KRas Q61H mutant + SOS: % inh.” value (KRas Q61H mutant) was “A (A = 1-25% inhibition)” and the “KRas Q61H mutant: % inh.” value (KRas Q61H mutant) was “B (B = 26-49% inhibition)”.

With `COCC1CCN(c2nc(-c3nccn3C)nn3cc(-c4ccn(C(C)C)n4)c(-c4ccccc4)c23)C1.Cl` (racemic) [Compound 19, rac 6-(1-Isopropyl-1H-pyrazol-3-yl)-4-(3-(methoxymethyl)pyrrolidin-1-yl)-2-(1-methyl-1H-imidazol-2-yl)-5-phenylpyrrolo[2,1-f][1,2,4]triazine hydrochloride salt] the inhibition at 20 µM (Rho-A) was 1 to 25%, the “KRas G12C mutant + SOS: % inh.” value (KRas G12C mutant) was “A (A = 1-25% inhibition)” and the “KRas G12C mutant: % inh.” value (KRas G12C mutant) was 0 (0 = 0% inhibition). The “KRas Q61H mutant + SOS: % inh.” value (KRas Q61H mutant) was “B (B = 26-49% inhibition)” and the “KRas Q61H mutant: % inh.” value (KRas Q61H mutant) was 0 (0 = 0% inhibition).
